Patent publication US20050203011A1, “Mitigating symptoms and behaviors of substance abuse by modulating GDNF or BDNF pathway activity” (The Regents of the University of California, priority 2003, published 2005)

Columns and labels:
Male Long Evans rats = experiment: Ethanol and sucrose self-administration in the two-bottle preference test; assay type: in vivo, rat; settings: ibogaine i.p.
Source text: Male Long Evans rats were allowed continuous access to two bottles, one containing 10% ethanol (10 E) in tap water and the other containing tap water. […] Each subject received each dose, with one injection per week. Next, subjects were exposed to 2 bottles, one containing 10% sucrose (10 S) in tap water and the other containing tap water.

rats [1] = experiment: Ethanol operant self-administration after systemic ibogaine; assay type: in vivo, rat; settings: 40 mg/kg i.p., 3 hours prior to session
Source text: Rats were water restricted, and then trained to lever press for a 10 S/10 E reinforcer solution in 3 overnight sessions. On the 4th day, rats were allowed ad libitum access to water in the home cage, and were transferred to 1-hour daily sessions wherein responses were reinforced with 5 S/10 E on a fixed-ratio 3 (FR3) schedule. Sucrose was phased out of the reinforcer solution over the next 7 days until the solution consisted of 10 E only. Experimental manipulations began after 30 sessions when stable 10 E intake of >0.4 g/kg ethanol was attained.

rats [2] = experiment: Ethanol reinstatement after extinction, systemic ibogaine; assay type: in vivo, rat; settings: 40 mg/kg i.p., 3 hours before test
Source text: The eight rats used in the operant self-administration study were also used to study ethanolseeking after a period of extinction. Following a period of stable responding for ethanol, rats underwent extinction in which no ethanol was delivered following active lever responses.

rats [3] = experiment: VTA microinjection of ibogaine, ethanol operant self-administration; assay type: in vivo, rat
Description: After ethanol self-administration was established as described above, subjects attained a mean daily intake of ethanol of 0.62±0.07 g/kg. Bilateral guide cannula (26 gauge, Plastics One) were implanted into the VTA (5.6 mm posterior to bregma, 1.0 mm mediolateral, 8.0 mm ventral to the skull surface). After 7 to 10 days recovery, sham injections were conducted prior to ethanol self-administration sessions to habituate subjects to the microinjection procedure. […] Injection cannulae were left in place for an additional 2 minutes to allow for diffusion of the drug. Three, 24 and 48 hours post injection, rats were placed into the self-administration chambers for a 1-hour self-administration session.

GDNF [4] = experiment: GDNF expression in the midbrain after i.p. ibogaine (RT-PCR), mice; assay type: in vivo, mouse; settings: 40 mg/kg i.p., 1, 6 or 12 h post injection
Description: (§1) Total RNA was isolated using Trizol reagent and reverse transcribed using Reverse Transcription System kit with the oligo (dT)15 primer at 42ûC for 30 minutes. GDNF, Actin or GPDH expressions were analyzed by RT-PCR. The GDNF primers were based on the coding frame of the human GDNF gene: upstream, 5′-TGCCAGAGGATTATCCTGATCAGTTCG ATG3′ (SEQ ID NO: 1); and downstream, 5′-TTGTCGTACGTTGTCTCAGCTGCATCGCAA-3′ (SEQ ID NO:2). The Actin primers were based on the human Actin gene: upstream, 5′-TCATGAAGTGTGACGTTGACATC-3′ (SEQ ID NO:3); and downstream, 5′-AGAAGCATTTGCGGTGGACGATG-3′ (SEQ ID NO:4). The GPDH primers were based on the rat GPDH gene: upstream, 5′-TGAAGGTCGGTGTCAACGGATTTGGC-3′ (SEQ ID NO:5); and downstream, 5′-CATGTAGGCCATGAGGTCCACCAC-3′ (SEQ ID NO:6). PCR conditions were optimized to specifically ensure that the amplification reactions are within the linear range by testing a range of 25-40 PCR cycles. The optimal numbers of cycles used were: 30 cycles for controls GPDH and actin and 35 cycles for GDNF.
(§2) Male C57B16 mice or Long Evans rats were habituated with 3 saline injections over 3 days followed by i.p. administration of 40 mg/kg ibogaine-HCl. The animals were sacrificed 1, 6 or 12 hours post injection, and brain regions were excised and stored at −80° C. until use for analysis of GDNF expression by RT-PCR.

GDNF [5] = experiment: GDNF expression in the midbrain after i.p. ibogaine (RT-PCR), rats; assay type: in vivo, rat; settings: 40 mg/kg i.p., 1, 6 or 12 h post injection
Description: as §1, §2

GDNF [6] = experiment: GDNF expression in SHSY5Y cells (RT-PCR); assay type: cell-based, human
Description: SHSY5Y human neuroblastoma cells were grown in Dulbecco's modified Eagle's medium (DMEM) containing 10% fetal bovine serum (FBS) plus 100 units/ml penicillin and 100 μg/ml streptomycin. Prior to experiments, the medium was replaced with DMEM containing 1% FBS.
as §1, with “PCR conditions were optimized to specifically ensure that the amplification reactions are within the linear range by testing a range of 25-40 PCR cycles. The optimal numbers of cycles used were: 30 cycles for controls GPDH and actin and 35 cycles for GDNF.” left out
After completion of PCR, 10 μl of each product was separated by 1.8% agarose gel in Tris/acetic acid/EDTA buffer with 0.25N^og/ml ethidium bromide, photographed by Eagle Eye II (Stratagene), and quantified by NIH Image 1.61.

[7] = tested on: tyrosine hydroxylase (TH); experiment: Tyrosine hydroxylase (TH) protein levels in SHSY5Y cells; assay type: cell-based, human; settings: 100 mM ethanol 24 hours, GDNF 100 ng/ml or ibogaine 10 μM added for last 12 hours
Description: Panel A: SHSY5Y cells were treated with different concentrations (0, 10, 25, and 100 mM) of ethanol for 24 hours. TH protein levels and control Actin levels were determined by Western blot analysis. Histogram depicts the mean ratio (TI/actin)±SD of 3 experiments. Panel B: Cells were treated with media (control), 100 ng/ml of GDNF for 12 h (lane 1), 100 mM ethanol for 24 hours (lane 2), or 100 mM ethanol for 24 hours to which 100 ng/ml GDNF was added for the last 12 hours (lane 3). The cells were lysed for Western blot analysis. Histogram depicts the mean ratio (TH/actin)±SD of 3 experiments. […] Histogram depicts the mean ratio (TH/actin)±SD of 3 experiments.

rats [8] = experiment: Intra-VTA minipump infusion of anti-GDNF neutralizing antibodies, ethanol self-administration after ibogaine; assay type: in vivo, rat; settings: 3 hours after ibogaine 40 mg/kg i.p., control subjects (intra-VTA mouse IgG)
Description: An osmotic minipump (Alzet) was then connected to each of the two guide cannulae and was implanted subcutaneously for continuous infusion of either anti GDNF neutralizing antibodies (600 ng/12 N^ol/side/day) or mouse IgG (600 ng/12 μl/side/day).

Substance: 12-methoxyibogamine [ibogaine]
- ethanol intake (Male Long Evans rats; continuous access to ethanol in home cage, measured 24 hours after injection): reduced
- preference for ethanol (Male Long Evans rats; continuous access, 24 hours after injection): reduced
- responding at the ethanol-paired lever (rats [1]): decreased
- reinstatement of lever pressing for ethanol (rats [2]): reduced
- lever responding for ethanol (rats [3]; intra-VTA 0.1 μM, any tested time point): did not differ from responding following vehicle
- lever presses for ethanol, return to baseline (rats [3]; intra-VTA 10 μM): did not return to baseline levels within 48 hours
- lever responding for ethanol (rats [3]; intra-VTA 10 μM, 3, 24 and 48 hours, vs vehicle): significantly reduced responding at all time points
- ethanol-paired lever pressing (rats [3]; intra-VTA 0.1, 1.0 and 10.0 μM/0.5 μl, 3 hours before session, dose-dependent): significantly decreased
- expression of GDNF in the midbrain (GDNF [4]): increase
- expression of GDNF in the midbrain (GDNF [5]): increase
- duration of increase in GDNF expression (GDNF [6]): up to 12 hours
- GDNF expression (GDNF [6]; 10 μM, dose- and time-dependent): increase
- ethanol-induced increase in TH immunoreactivity [7]: inhibited
- decrease in responding for ethanol (rats [8]): 79.1%
